Experimental data: patent US5869031A, “Depigmenting dermatological and/or cosmetic composition” (priority 1995, dated 1999)

Key:
[1] = UVA and UVB sunscreen activity, spectrophotometric study; type: physicochemical; conditions: extract titrated to 5% umbelliferone, Parsol MCX as comparison
[2] = Anti-radical activity on radical propagation (hydroxyl radicals), evaluated on DPHH; conditions: extract containing 5% umbelliferone; vitamin E as comparison
Protocol: Evaluation of the anti-radical activity
disappearance of the free radicals. Free radical traps act on the superoxide anion O2^- but also on the hydroxyl radicals. Thus, we have sought to evaluate the anti-radical activity on these two steps.
The activity on radical propagation, and thus on the hydroxyl radicals, is evaluated on DPHH, diphenyl-picrylhydrazyl hydrate, which is a stable, colored free radical.

Compound	specific extension coefficient at 310 nm [1]	IC50 on DPHH (radical propagation, hydroxyl radicals) [2] [µg/mL]
CCCCC(CC)COC(=O)C=Cc1ccc(OC)cc1 (centres unmarked) [Parsol MCX]	810	
vitamin E		6
